Patent US20170152258A9, “Substituted Pyridopyrazines as Syk Inhibitors” (HUTCHISON MEDIPHARMA LIMITED, priority 2012, published 2017)
pIC50: −log10 of the molar value.

Key:
[1] = system: RBL-2H3 cells; assay: IgE-induced Beta-hexosaminidase secretion in RBL-2H3 cells; format: cell-based; conditions: DNP-BSA stimulation
Method: For the determination of IgE-induced Beta-hexosaminidase secretion, RBL-2H3 cells (SIBS) are seeded in 96 well plates at 4×10^4 cells per well and incubated in MEM media with 15% FBS and Glutamine ([…]) for 4 hours and sensitized with 0.5 ug/ml of SPE-7 overnight. Cells are washed 3 times with Tyrode's buffer and incubated in the presence or absence of various concentrations of the testing compound for 20 min at 37° C., 5% CO2. Cells are stimulated by adding 10 uL of DNP-BSA solution (150 ng/mL) to each well and incubating for 45 minutes at 37° C., 5% CO2. Then, 45 μL of the supernatant is taken and incubated with 100 μL of 1 mM 4-Nitrophenyl N-acetyl-β-D-glucosaminide (Sigma, Cat. No. N9376), which is diluted in 0.05 M citrate buffer (pH 4.5), for 1.5 hr at 37° C. The reactions are quenched by adding 185 μL of 0.05 M sodium carbonate buffer (pH 10.0). Plates are read at 405 nm on Multiskan (MK 3).

[2] = target: Syk kinase (Homo sapiens, UniProt P43405); assay: SYK Enzymatic Assay (Z-LYTE Tyr 2 peptide); format: biochemical; conditions: 8 concentrations 1 μM down to 0.0003 μM
Method: Syk kinase assay are performed in vitro using Kit-Tyr 2 Peptide (Invitrogen, Cat. No. PV3191) and in a 384-well assay plate. […] The 384-well assay plate (Corning, Cat. No. 3575) is mixed and incubated at room temperature for 1 hour. 10 μL of the Development Solution (prepared by diluting Development Reagent A (Cat. No. PV3297) to 1/32 with Development Buffer (Cat. No. PV3127)) is then added to each well, mixed and incubated at room temperature for another 1 hour. The reactions are then stopped by adding 10 μL of the Stop Reagent (Invitrogen, Cat. No. PV3094), and the plate is read with Wallac 1420 VICTOR^3 Multilabel Counter (PerkinElmer™) at 445 nm and 520 nm fluorescence. All compounds are tested at 8 concentrations (1 μM down to 0.0003 μM) using a 1:3 serial dilution scheme.

[3] = Rattus norvegicus, RBL-2H3, IgE-induced Beta-hexosaminidase secretion

Structure (SMILES) | pIC50 [1, 3] | pIC50 [2] | pIC50 ([1]; IgE-induced Beta-hexosaminidase secretion)
CS(=O)(=O)N1CCO[C@H](COc2nc(-c3ccc4c(c3)OCO4)cc3nccnc23)C1 [Compound 110] | 6.79 | 6.68 | –
CNc1ccc(-c2cc3nccnc3c(OC[C@@H]3CN(C(=O)[C@H]4CCCO4)CCO3)n2)cc1 [Compound 51] | 6.80 | 7.03 | –
CC(=O)N1CCO[C@H](COc2nc(-c3ccc(N(C)C(C)C)cc3)cc3nccnc23)C1 [Compound 144, (S)-1-(2-(((7-(4-(isopropyl(methyl)amino)phenyl)pyrido[3,4-b]pyrazin-5-yl)oxy)methyl)morpholino)ethanone] | 7.10 | 7.24 | –
NC(=O)N1CCO[C@H](COc2nc(-c3ccc(N4CCOCC4)cc3)cc3nccnc23)C1 [Compound 63] | 6.47 | 7.43 | –
CC(=O)N1CCO[C@H](COc2nc(-c3ccc(N4CCOCC4)cc3)cc3nccnc23)C1 [Compound 24] | 6.90 | 7.12 | –
CC(=O)N1CCO[C@H](COc2nc(-c3ccc4c(c3)OCCN4C)cc3nccnc23)C1 [Compound 148] | 6.86 | 7.02 | –
CN(C)c1ccc(-c2cc3nccnc3c(OC[C@@H]3CN(C(=O)[C@@H]4CCOC4)CCO3)n2)cc1 [Compound 72] | 6.73 | 6.96 | –
Cc1cc(-c2cc3nccnc3c(OC[C@@H]3CN(C(N)=O)CCO3)n2)ccc1N(C)C [Compound 163] | 7.28 | 7.44 | –
NS(=O)(=O)N1CCO[C@H](COc2nc(-c3ccc(N4CCCC4)cc3)cc3nccnc23)C1 [Compound 30] | 6.56 | 7.37 | –
CN(C)c1ccc(-c2cc3nccnc3c(OC[C@@H]3CN(C(=O)C4CC(F)(F)C4)CCO3)n2)cc1 [Compound 71] | 6.47 | 6.90 | –
CC(=O)N1CCO[C@H](COc2nc(-c3ccc(N4CCN(CCO)CC4)cc3)cc3nccnc23)C1 [Compound 49] | 6.50 | 7.06 | –
NS(=O)(=O)N1CCO[C@H](COc2nc(-c3ccc(N4CCCCC4)cc3)cc3nccnc23)C1 [Compound 28] | 6.85 | 7.40 | –
CC(=O)N1CCC(c2ccc(-c3cc4nccnc4c(OC[C@@H]4CN(S(C)(=O)=O)CCO4)n3)cc2)CC1 [Compound 33] | 7.19 | 7.57 | –
CC(=O)N1CCO[C@H](COc2nc(-c3ccc(N(C)C)c(Cl)c3)cc3nccnc23)C1 [Compound 140] | 7.51 | 7.28 | –
CCS(=O)(=O)N1CCO[C@H](COc2nc(-c3ccc(N(C)C)cc3)cc3nccnc23)C1 [Compound 88] | 7.01 | 7.49 | –
CN(C)c1ccc(-c2cc3nccnc3c(OC[C@@H]3CN(C(=O)c4ncc[nH]4)CCO3)n2)cc1 [Compound 86] | 6.21 | 6.96 | –
CNC(=O)N1CCO[C@H](COc2nc(-c3ccc(N(C)C)c(C)c3)cc3nccnc23)C1 [Compound 164] | 7.09 | 7.18 | –
CN(C)c1ccc(-c2cc3nccnc3c(O[C@@H]3CCOC3)n2)cc1 [Compound 123] | 7.46 | 7.52 | –
CS(=O)(=O)N1CCO[C@H](COc2nc(-c3ccc(C4CCN(CCO)CC4)cc3)cc3nccnc23)C1 [Compound 58, (S)-2-(4-(4-(5-((4-(methylsulfonyl)morpholin-2-yl)methoxy)pyrido[3,4-b]pyrazin-7-yl)phenyl)piperidin-1-yl)ethanol] | 6.00 | 7.51 | –
CN(C)c1ccc(-c2cc3nccnc3c(OC[C@@H]3CN(C(N)=O)CCO3)n2)cc1 [Compound 136] | 7.00 | 7.60 | –
CS(=O)(=O)N1CCO[C@H](COc2nc(-c3ccc(N4CCOCC4)c(F)c3)cc3nccnc23)C1 [Compound 7] | 6.91 | 7.15 | –
COc1ccc(-c2cc3nccnc3c(OC[C@@H]3CN(S(C)(=O)=O)CCO3)n2)cc1OC [Compound 43] | 7.43 | 7.89 | –
CS(=O)(=O)N1CCO[C@H](COc2nc(-c3ccc(C4CCOCC4)cc3)cc3nccnc23)C1 [Compound 11] | 7.32 | 7.28 | –
COCCN1CCC(c2ccc(-c3cc4nccnc4c(OC[C@@H]4CN(S(C)(=O)=O)CCO4)n3)cc2)CC1 [Compound 59] | 6.93 | 7.52 | –
CN1CCN(c2ccc(-c3cc4nccnc4c(OC[C@@H]4CN(S(N)(=O)=O)CCO4)n3)cc2)CC1 [Compound 64] | 6.31 | 7.70 | –

More lines, now with the values ahead:

pIC50 [1, 3] | pIC50 [2] | pIC50 ([1]; IgE-induced Beta-hexosaminidase secretion) | Structure (SMILES)
6.57 | 7.10 | – | CNS(=O)(=O)N1CCOC(COc2nc(-c3ccc(C(C)(C)O)cc3)cc3nccnc23)C1 (stereo not shown) [Compound 262]
7.11 | 7.21 | – | CC(=O)N1CCO[C@H](COc2nc(-c3ccc4c(c3)CCN4C)cc3nccnc23)C1 [Compound 189]
7.17 | 7.23 | – | CNC(=O)N1CCO[C@H](COc2nc(-c3ccc(C(C)C)cc3)cc3nccnc23)C1 [Compound 176]
7.44 | 7.74 | – | COC(C)(C)c1ccc(-c2cc3nccnc3c(OC[C@@H]3CN(S(C)(=O)=O)CCO3)n2)cc1 [Compound 268]
6.97 | 7.22 | – | CS(=O)(=O)N1CCO[C@H](COc2nc(-c3ccc4[nH]ncc4c3)cc3nccnc23)C1 [Compound 203]
7.02 | 7.12 | – | CN(C)c1ccc(-c2cc3nccnc3c(OC[C@@H]3CN(C(N)=O)CCO3)n2)cc1F [Compound 183]
7.21 | 7.08 | – | CNC(=O)N1CCO[C@H](COc2nc(-c3ccc(N(C)C)c(F)c3)cc3nccnc23)C1 [Compound 184]
6.40 | 7.64 | – | CC(C)(O)c1ccc(-c2cc3nccnc3c(OC[C@@H]3CN(S(N)(=O)=O)CCO3)n2)cc1 [Compound 263]
6.88 | 7.29 | – | Cc1cc(-c2cc3nccnc3c(OC[C@@H]3CN(C(=O)[C@@H](C)O)CCO3)n2)ccc1N(C)C [Compound 200]
6.80 | 7.20 | – | CC(C)(C)c1ccc(-c2cc3nccnc3c(OC[C@@H]3CN(S(N)(=O)=O)CCO3)n2)cc1 [Compound 257]
7.31 | 7.52 | – | Cc1cc(-c2cc3nccnc3c(O[C@@H]3CCOC3)n2)ccc1N1CCOCC1 [Compound 192]
6.78 | 7.06 | – | CC(=O)N1CCO[C@H](COc2nc(-c3ccc(C(C)(C)O)cc3)cc3nccnc23)C1 [Compound 265]
6.52 | 7.33 | – | CN1CCN(c2ccc(-c3cc4nccnc4c(OC[C@@H]4CNC(=O)C4)n3)cc2)CC1 [Compound 225]
6.38 | 7.28 | – | CS(=O)(=O)N1CCC(c2ccc(-c3cc4nccnc4c(OC[C@@H]4CNC(=O)C4)n3)cc2)CC1 [Compound 261, (S)-4-(((7-(4-(1-(methylsulfonyl)piperidin-4-yl)phenyl)pyrido[3,4-b]pyrazin-5-yl)oxy)methyl)pyrrolidin-2-one]
6.73 | 7.09 | – | CS(=O)(=O)N1CCO[C@H](COc2nc(-c3ccc(CN4CCOCC4)cc3)cc3nccnc23)C1 [Compound 258]
7.25 | 7.17 | – | CN(C)c1ccc(-c2cc3nccnc3c(OC[C@H]3CNC(=O)C3)n2)cc1 [Compound 232]
6.89 | 7.17 | – | C[C@@H](O)C(=O)N1CCO[C@H](COc2nc(-c3ccc(N(C)C)cc3)cc3nccnc23)C1 [Compound 196]
7.07 | 7.60 | 7.32 | CC(C)(CO)c1ccc(-c2cc3nccnc3c(OC[C@@H]3CN(S(C)(=O)=O)CCO3)n2)cc1 [Compound 288]
6.21 | 7.46 | – | NC(=O)N1CCO[C@H](COc2nc(-c3ccc(C4(O)CCC4)cc3)cc3nccnc23)C1 [Compound 311]
6.84 | 7.18 | – | Fc1cc(-c2cc3nccnc3c(O[C@@H]3CCOC3)n2)ccc1N1CCOCC1 [Compound 193]
7.52 | 8.05 | – | CC1(C)OCCc2cc(-c3cc4nccnc4c(OC[C@@H]4CN(S(C)(=O)=O)CCO4)n3)ccc21 [Compound 302]
7.08 | 7.12 | – | CNS(=O)(=O)N1CCOC(COc2nc(-c3ccc(C(C)(C)C#N)cc3)cc3nccnc23)C1 (stereo not shown) [Compound 251]
7.03 | 7.31 | – | C[C@@H]1CN(c2ccc(-c3cc4nccnc4c(O[C@@H]4CCOC4)n3)cc2)C[C@H](C)O1 [Compound 229]
7.70 | 7.80 | – | CN1CCc2cc(-c3cc4nccnc4c(OC[C@@H]4CN(S(C)(=O)=O)CCO4)n3)ccc21 [Compound 214]
7.17 | 7.35 | – | c1cnc2c(O[C@@H]3CCOC3)nc(-c3ccc(C4CCOCC4)cc3)cc2n1 [Compound 217]
5.90 | 6.32 | – | CC(=O)N1CCO[C@H](COc2nc(-c3ccc(C(C)(C)CN)cc3)cc3nccnc23)C1 [Compound 267]
